In brackets after ≈: the same amount, converted by molar mass.

This assay relates to multidrug-resistant (MDR) strains of Mycobacterium tuberculosis. Kind of assay: microbe, parasite or virus in culture. Format: cell-based. The following applies: 192 h, read-out: Anti-tubercular activity against Mycobacterium tuberculosis MDR (MIC).
Turning to `COC(=O)C1=C(C)NC(=O)NC1c1ccc([N+](=O)[O-])cc1[N+](=O)[O-]` (stereo not shown) [DHPM-KN4, Methyl 4-(2,4-dinitrophenyl)-6-methyl-2-oxo-1,2,3,4-tetrahydropyrimidine-5-carboxylate], the MIC was 64 µg/mL (≈ 190 µM).

As for `CC1=C(C(=O)N2CCCCC2)C(c2ccc(Br)cc2)NC(=S)N1` (stereo not shown) [DHPM-KN6, (4-(4-Bromophenyl)-6-methyl-2-thioxo-1,2,3,4-tetrahydropyrimidin-5-yl)(piperidin-1-yl)methanone], the MIC turned out to be 128 µg/mL (≈ 325 µM).

Consider `CC1=C(C(=O)N2CCCCC2)C(c2ccc([N+](=O)[O-])cc2)NC(=S)N1` (stereo not shown) [DHPM-KN5, (6-Methyl-4-(4-nitrophenyl)-2-thioxo-1,2,3,4-tetrahydropyrimidin-5-yl)(piperidin-1-yl)methanone], for which the MIC was 32 µg/mL (≈ 88.8 µM).

On to `CC1=C(C(=O)N2CCCCC2)C(c2ccc(C(F)(F)F)cc2)NC(=S)N1` (stereo not shown) [DHPM-KN10, (6-Methyl-2-thioxo-4-(4-(trifluoromethyl)phenyl)-1,2,3,4-tetrahydropyrimidin-5-yl)(piperidin-1-yl)methanone], for which the MIC worked out at 256 µg/mL (≈ 668 µM).

`COc1ccc(C2NC(=S)NC(C)=C2C(=O)N2CCCCC2)cc1` (stereo not shown) [DHPM-KN7, (4-(4-Methoxyphenyl)-6-methyl-2-thioxo-1,2,3,4-tetrahydropyrimidin-5-yl)(piperidin-1-yl)methanone]: the MIC was found to be 256 µg/mL (≈ 741 µM).

With `CC1=C(C(=O)N2CCCCC2)C(c2ccccc2C)NC(=S)N1` (stereo not shown) [DHPM-KN8, (6-Methyl-2-thioxo-4-(o-tolyl)-1,2,3,4-tetrahydropyrimidin-5-yl)(piperidin-1-yl)methanone], the MIC is 256 µg/mL (≈ 777 µM).

Take `CC1=C(C(=O)N2CCCCC2)C(c2ccccc2)NC(=S)N1` (stereo not shown) [DHPM-KN1, (6-Methyl-4-phenyl-2-thioxo-1,2,3,4-tetrahydropyrimidin-5-yl)(piperidin-1-yl)methanone]: the MIC stood at 64 µg/mL (≈ 203 µM).

The record behind these values is US11912683B1 (priority 2023, dated 2024).
